SMILES strings stand for the structures.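 Following 48 hours of exposure in 96-well plates, responses at five concentrations were used to interpolate endpoints linearly. TGI: concentration producing complete growth inhibition.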

Data on four compounds can be found in PubChem BioAssay (NCI).

One experiment concerns MDA-MB-231 breast. Nature of the experiment: inhibition of tumour cell growth, NCI panel, 48 h.
In turn, `CC(C)/C(Cl)=N\OC(=O)Nc1ccc(C#N)cc1` returned a TGI of 28.1 µM.
With `C=CC[C@]12C[C@@H](C(=O)OC)N(C(=O)OC)[C@H]1N(S(=O)(=O)c1ccccc1)c1ccccc12`, the TGI was more than 100 µM.
`C=CCSc1nc2ccccc2c(=O)n1Cc1ccco1` had a TGI of more than 100 µM.

For another experiment, the system named is NCI/ADR-RES ovarian. Nature of the experiment: inhibition of tumour cell growth, NCI panel, 48 h.
In turn, `CCOc1cc(C2CC(c3ccc(NS(=O)(=O)c4cc([N+](=O)[O-])ccc4C)cc3)=NN2C(=O)c2ccccc2)ccc1O` (configuration not stated) displayed a TGI of more than 100 µM.
`CC(C)/C(Cl)=N\OC(=O)Nc1ccc(C#N)cc1` registered a TGI of 32.2 µM.
On to `C=CC[C@]12C[C@@H](C(=O)OC)N(C(=O)OC)[C@H]1N(S(=O)(=O)c1ccccc1)c1ccccc12`, for which the TGI was more than 100 µM.
With `C=CCSc1nc2ccccc2c(=O)n1Cc1ccco1`, the TGI was more than 100 µM.

A further experiment relates to HT29 colon. Put plainly: inhibition of tumour cell growth, NCI panel, 48 h.
`CCOc1cc(C2CC(c3ccc(NS(=O)(=O)c4cc([N+](=O)[O-])ccc4C)cc3)=NN2C(=O)c2ccccc2)ccc1O` (configuration not stated) returned a TGI of more than 100 µM.
The same measure, in the same setting: the figure for `CC(C)/C(Cl)=N\OC(=O)Nc1ccc(C#N)cc1` is 43 µM.
Same read-out and setting: then `C=CC[C@]12C[C@@H](C(=O)OC)N(C(=O)OC)[C@H]1N(S(=O)(=O)c1ccccc1)c1ccccc12`, with more than 100 µM; and `C=CCSc1nc2ccccc2c(=O)n1Cc1ccco1`, with more than 100 µM.

The subject of another experiment is HCT-15 colon. Nature of the experiment: inhibition of tumour cell growth, NCI panel, 48 h.
`CCOc1cc(C2CC(c3ccc(NS(=O)(=O)c4cc([N+](=O)[O-])ccc4C)cc3)=NN2C(=O)c2ccccc2)ccc1O` (configuration not stated) returned a TGI of more than 100 µM.
`CC(C)/C(Cl)=N\OC(=O)Nc1ccc(C#N)cc1` gave a TGI of 22.6 µM.
`C=CC[C@]12C[C@@H](C(=O)OC)N(C(=O)OC)[C@H]1N(S(=O)(=O)c1ccccc1)c1ccccc12` returned a TGI of more than 100 µM.
With `C=CCSc1nc2ccccc2c(=O)n1Cc1ccco1`, the TGI was more than 100 µM.

A further experiment has as its system COLO 205 colon. Nature of the experiment: inhibition of tumour cell growth, NCI panel, 48 h.
As for `CCOc1cc(C2CC(c3ccc(NS(=O)(=O)c4cc([N+](=O)[O-])ccc4C)cc3)=NN2C(=O)c2ccccc2)ccc1O` (configuration not stated), the TGI was 31.4 µM.
On to `CC(C)/C(Cl)=N\OC(=O)Nc1ccc(C#N)cc1`, for which the TGI is 3.24 µM.
In turn, `C=CCSc1nc2ccccc2c(=O)n1Cc1ccco1` displayed a TGI of more than 100 µM.

Another experiment relates to KM12 colon. Nature of the experiment: inhibition of tumour cell growth, NCI panel, 48 h.
The compound `CCOc1cc(C2CC(c3ccc(NS(=O)(=O)c4cc([N+](=O)[O-])ccc4C)cc3)=NN2C(=O)c2ccccc2)ccc1O` (configuration not stated) showed a TGI of more than 100 µM.
Consider `CC(C)/C(Cl)=N\OC(=O)Nc1ccc(C#N)cc1`, for which the TGI was 29.9 µM.
Compound `C=CC[C@]12C[C@@H](C(=O)OC)N(C(=O)OC)[C@H]1N(S(=O)(=O)c1ccccc1)c1ccccc12` registered a TGI of more than 100 µM.
In turn, `C=CCSc1nc2ccccc2c(=O)n1Cc1ccco1` yielded a TGI of more than 100 µM.

Another experiment relates to M14 melanoma. Put plainly: inhibition of tumour cell growth, NCI panel, 48 h.
`CCOc1cc(C2CC(c3ccc(NS(=O)(=O)c4cc([N+](=O)[O-])ccc4C)cc3)=NN2C(=O)c2ccccc2)ccc1O` (configuration not stated): the TGI amounted to 76.1 µM.
Compound `CC(C)/C(Cl)=N\OC(=O)Nc1ccc(C#N)cc1` had a TGI of 7.85 µM.
For the compound `C=CCSc1nc2ccccc2c(=O)n1Cc1ccco1`, the TGI is more than 100 µM.

For the next experiment, the system named is A498 renal. Nature of the experiment: inhibition of tumour cell growth, NCI panel, 48 h.
The compound `CCOc1cc(C2CC(c3ccc(NS(=O)(=O)c4cc([N+](=O)[O-])ccc4C)cc3)=NN2C(=O)c2ccccc2)ccc1O` (configuration not stated) showed a TGI of 44.3 µM.
Same read-out and setting: then `CC(C)/C(Cl)=N\OC(=O)Nc1ccc(C#N)cc1`, with 27.7 µM; and `C=CC[C@]12C[C@@H](C(=O)OC)N(C(=O)OC)[C@H]1N(S(=O)(=O)c1ccccc1)c1ccccc12`, with more than 100 µM.
In turn, `C=CCSc1nc2ccccc2c(=O)n1Cc1ccco1` displayed a TGI of more than 100 µM.

The subject of the next experiment is OVCAR-3 ovarian. Nature of the experiment: inhibition of tumour cell growth, NCI panel, 48 h.
With `CCOc1cc(C2CC(c3ccc(NS(=O)(=O)c4cc([N+](=O)[O-])ccc4C)cc3)=NN2C(=O)c2ccccc2)ccc1O` (configuration not stated), the TGI was 36.3 µM.
As for `CC(C)/C(Cl)=N\OC(=O)Nc1ccc(C#N)cc1`, the TGI stood at 30.5 µM.
In turn, `C=CC[C@]12C[C@@H](C(=O)OC)N(C(=O)OC)[C@H]1N(S(=O)(=O)c1ccccc1)c1ccccc12` gave a TGI of more than 100 µM.
Compound `C=CCSc1nc2ccccc2c(=O)n1Cc1ccco1` displayed a TGI of more than 100 µM.

In another experiment the test system is U251 CNS. Put plainly: inhibition of tumour cell growth, NCI panel, 48 h.
Regarding `CCOc1cc(C2CC(c3ccc(NS(=O)(=O)c4cc([N+](=O)[O-])ccc4C)cc3)=NN2C(=O)c2ccccc2)ccc1O` (configuration not stated), the TGI was more than 100 µM.
With `CC(C)/C(Cl)=N\OC(=O)Nc1ccc(C#N)cc1`, the TGI was determined as 31.9 µM.
`C=CC[C@]12C[C@@H](C(=O)OC)N(C(=O)OC)[C@H]1N(S(=O)(=O)c1ccccc1)c1ccccc12`: the TGI is more than 100 µM.
On the same count and under the same terms, the figure for `C=CCSc1nc2ccccc2c(=O)n1Cc1ccco1` is more than 100 µM.

The next experiment relates to BT-549 breast. Put plainly: inhibition of tumour cell growth, NCI panel, 48 h.
In the case of `CCOc1cc(C2CC(c3ccc(NS(=O)(=O)c4cc([N+](=O)[O-])ccc4C)cc3)=NN2C(=O)c2ccccc2)ccc1O` (configuration not stated), the TGI was found to be 93.3 µM.
As for `CC(C)/C(Cl)=N\OC(=O)Nc1ccc(C#N)cc1`, the TGI came out at 26.6 µM.
Turning to `C=CC[C@]12C[C@@H](C(=O)OC)N(C(=O)OC)[C@H]1N(S(=O)(=O)c1ccccc1)c1ccccc12`, the TGI was more than 100 µM.
Still for that read-out and setting: then `C=CCSc1nc2ccccc2c(=O)n1Cc1ccco1`, with more than 100 µM.

A further experiment deals with OVCAR-5 ovarian. Nature of the experiment: inhibition of tumour cell growth, NCI panel, 48 h.
`CCOc1cc(C2CC(c3ccc(NS(=O)(=O)c4cc([N+](=O)[O-])ccc4C)cc3)=NN2C(=O)c2ccccc2)ccc1O` (configuration not stated) gave a TGI of more than 100 µM.
In the case of `CC(C)/C(Cl)=N\OC(=O)Nc1ccc(C#N)cc1`, the TGI was 28.4 µM.
`C=CC[C@]12C[C@@H](C(=O)OC)N(C(=O)OC)[C@H]1N(S(=O)(=O)c1ccccc1)c1ccccc12` gave a TGI of more than 100 µM.
Still for that read-out and setting: the figure for `C=CCSc1nc2ccccc2c(=O)n1Cc1ccco1` is more than 100 µM.

For another experiment, the system named is OVCAR-4 ovarian. Put plainly: inhibition of tumour cell growth, NCI panel, 48 h.
Take `CCOc1cc(C2CC(c3ccc(NS(=O)(=O)c4cc([N+](=O)[O-])ccc4C)cc3)=NN2C(=O)c2ccccc2)ccc1O` (configuration not stated): the TGI is more than 100 µM.
The same measure, in the same setting: then `CC(C)/C(Cl)=N\OC(=O)Nc1ccc(C#N)cc1`, with 3.24 µM.
Compound `C=CC[C@]12C[C@@H](C(=O)OC)N(C(=O)OC)[C@H]1N(S(=O)(=O)c1ccccc1)c1ccccc12` showed a TGI of more than 100 µM.
For `C=CCSc1nc2ccccc2c(=O)n1Cc1ccco1`, the TGI was more than 100 µM.

Another experiment relates to UACC-257 melanoma. Nature of the experiment: inhibition of tumour cell growth, NCI panel, 48 h.
Compound `CCOc1cc(C2CC(c3ccc(NS(=O)(=O)c4cc([N+](=O)[O-])ccc4C)cc3)=NN2C(=O)c2ccccc2)ccc1O` (configuration not stated) displayed a TGI of 91.5 µM.
Regarding `CC(C)/C(Cl)=N\OC(=O)Nc1ccc(C#N)cc1`, the TGI amounted to 25.3 µM.
On to `C=CC[C@]12C[C@@H](C(=O)OC)N(C(=O)OC)[C@H]1N(S(=O)(=O)c1ccccc1)c1ccccc12`, for which the TGI is 77.3 µM.
As for `C=CCSc1nc2ccccc2c(=O)n1Cc1ccco1`, the TGI is more than 100 µM.

For a further experiment, the system named is 786-0 renal. Nature of the experiment: inhibition of tumour cell growth, NCI panel, 48 h.
Compound `CCOc1cc(C2CC(c3ccc(NS(=O)(=O)c4cc([N+](=O)[O-])ccc4C)cc3)=NN2C(=O)c2ccccc2)ccc1O` (configuration not stated) gave a TGI of 46.7 µM.
In turn, `CC(C)/C(Cl)=N\OC(=O)Nc1ccc(C#N)cc1` returned a TGI of 11.8 µM.
Same read-out and setting: then `C=CC[C@]12C[C@@H](C(=O)OC)N(C(=O)OC)[C@H]1N(S(=O)(=O)c1ccccc1)c1ccccc12`, with more than 100 µM.
`C=CCSc1nc2ccccc2c(=O)n1Cc1ccco1`: the TGI is more than 100 µM.
